We go through 24 compounds from US20170057955A1, “Pyridopyrimidinone Compounds for Modulating the Catalytic Activity of Histone Lysine Demethylases (KDMs)” (Dong-A Socio Holdings Co., Ltd., priority 2015, published 2017).

Bounds are passed on as bounds.

T1 sequence (Q9UGL1 whole entry): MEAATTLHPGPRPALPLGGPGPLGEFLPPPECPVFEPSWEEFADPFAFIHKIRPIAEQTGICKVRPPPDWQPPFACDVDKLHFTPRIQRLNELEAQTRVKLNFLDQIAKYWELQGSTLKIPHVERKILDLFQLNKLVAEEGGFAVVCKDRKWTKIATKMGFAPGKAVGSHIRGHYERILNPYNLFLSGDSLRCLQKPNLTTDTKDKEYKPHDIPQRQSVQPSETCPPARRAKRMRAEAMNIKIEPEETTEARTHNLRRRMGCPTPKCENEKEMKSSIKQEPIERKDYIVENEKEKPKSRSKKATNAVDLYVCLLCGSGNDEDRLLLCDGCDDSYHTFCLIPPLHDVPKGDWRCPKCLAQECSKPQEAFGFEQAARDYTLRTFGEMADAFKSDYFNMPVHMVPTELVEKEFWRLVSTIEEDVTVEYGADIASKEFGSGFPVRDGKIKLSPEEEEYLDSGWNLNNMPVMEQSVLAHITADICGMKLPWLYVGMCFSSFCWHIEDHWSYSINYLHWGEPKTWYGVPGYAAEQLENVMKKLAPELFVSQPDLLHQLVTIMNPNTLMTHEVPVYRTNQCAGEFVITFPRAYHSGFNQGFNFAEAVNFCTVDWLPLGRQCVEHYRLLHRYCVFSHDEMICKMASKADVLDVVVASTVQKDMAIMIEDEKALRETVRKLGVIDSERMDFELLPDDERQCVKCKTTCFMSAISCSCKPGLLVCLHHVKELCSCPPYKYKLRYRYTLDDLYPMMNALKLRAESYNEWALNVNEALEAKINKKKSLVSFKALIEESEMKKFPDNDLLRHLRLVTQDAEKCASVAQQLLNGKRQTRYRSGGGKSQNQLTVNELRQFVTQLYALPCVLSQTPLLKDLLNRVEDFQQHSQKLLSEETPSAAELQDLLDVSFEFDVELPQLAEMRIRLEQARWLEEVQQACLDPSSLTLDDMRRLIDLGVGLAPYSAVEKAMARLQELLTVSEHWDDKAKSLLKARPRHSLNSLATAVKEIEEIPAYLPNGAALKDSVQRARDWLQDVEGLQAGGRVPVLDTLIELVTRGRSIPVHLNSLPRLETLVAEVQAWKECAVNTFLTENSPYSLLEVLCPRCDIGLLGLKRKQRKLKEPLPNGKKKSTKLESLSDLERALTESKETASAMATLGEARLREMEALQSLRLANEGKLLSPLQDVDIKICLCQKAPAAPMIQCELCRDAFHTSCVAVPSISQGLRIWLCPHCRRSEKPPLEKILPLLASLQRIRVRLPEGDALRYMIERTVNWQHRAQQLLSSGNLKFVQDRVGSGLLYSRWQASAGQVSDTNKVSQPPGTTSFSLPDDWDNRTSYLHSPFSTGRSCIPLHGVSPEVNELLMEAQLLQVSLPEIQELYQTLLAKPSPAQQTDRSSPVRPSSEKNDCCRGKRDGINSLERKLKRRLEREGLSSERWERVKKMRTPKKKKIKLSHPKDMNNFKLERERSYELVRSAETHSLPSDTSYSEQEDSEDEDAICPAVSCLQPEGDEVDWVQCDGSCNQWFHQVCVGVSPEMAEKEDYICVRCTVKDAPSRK

The test addresses T1, Recombinant human JARID1B/KDM5B (Homo sapiens, UniProt Q9UGL1).
T1 construct: purchased Active Motif 31432; host or cells: Sf9 insect cells
Description: LANCE Ultra TR-FRET JARID1B (KDM5B) demethylase inhibition assay. In kind it is biochemical. The following applies: 0.1 uM of test-compounds, FLAG-JARID1B, 500 nM biotinylated H3K4me3 peptide substrate, 30 min at room temperature. A digest of the protocol:
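FLAG-tagged JARID1B from Sf9 cells, pre-incubated 5 min with 0.1 uM compound (1% DMSO), then 500 nM biotinylated H3K4me3 peptide, 500 uM 2-OG, 25 uM Fe(II), 2 mM ascorbate in pH 7.5 Hepes buffer. After 30 min at room temperature, H3K4me2/1 product detected by TR-FRET (665/590 nm ratio).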
On the technique in general: Time-resolved FRET reads energy transfer from a long-lived donor to a nearby acceptor.
By inhibition is commonly meant the change of the read-out against control, counted positive when it falls. On to `O=c1[nH]c(COc2ccc(F)c(Cl)c2)nc2c(-c3csc(NCCCCN4CCCC4)n3)nccc12` [Compound 119, 2-((3-chloro-4-fluorophenoxy)methyl)-8-(2-((4-(pyrrolidin-1-yl)butyl)amino)thiazol-4-yl)pyrido[3,4-d]pyrimidin-4(3H)-one], for which the inhibition at 0.1 µM is 20 to 50%.
Then `CC(C)N(CCCCCNc1nc(-c2nccc3c(=O)[nH]c(COc4ccc(F)c(Cl)c4)nc23)cs1)C(C)C` [Compound 120, 2-((3-chloro-4-fluorophenoxy)methyl)-8-(2-((5-(diisopropylamino)pentyl)amino)thiazol-4-yl)pyrido[3,4-d]pyrimidin-4(3H)-one], with 20 to 50%.
Then `CCC[C@H](CO)Nc1nc(-c2nccc3c(=O)[nH]c(COc4ccc(F)c(Cl)c4)nc23)cs1` [Compound 121, (R)-2-((3-chloro-4-fluorophenoxy)methyl)-8-(2-((1-hydroxypentan-2-yl)amino)thiazol-4-yl)pyrido[3,4-d]pyrimidin-4(3H)-one], with 20 to 50%; and `CCOC(=O)c1nc(-c2nccc3c(=O)[nH]c(COc4ccc(F)c(Cl)c4)nc23)cs1` [Compound 122, ethyl 4-(2-((3-chloro-4-fluorophenoxy)methyl)-4-oxo-3,4-dihydropyrido[3,4-d]pyrimidin-8-yl)thiazole-2-carboxylate], with less than 20%; and `CC(CNc1nc(-c2nccc3c(=O)[nH]c(COc4ccc(F)c(Cl)c4)nc23)cs1)Oc1ccccc1` (stereo not drawn) [Compound 123, 2-((3-chloro-4-fluorophenoxy)methyl)-8-(2-((2-phenoxypropyl)amino)thiazol-4-yl)pyrido[3,4-d]pyrimidin-4(3H)-one], with less than 20%.
Then `O=C(Nc1nc(-c2nccc3c(=O)[nH]c(COc4ccc(F)c(Cl)c4)nc23)cs1)c1ccccc1` [Compound 124, N-(4-(2-((3-chloro-4-fluorophenoxy)methyl)-4-oxo-3,4-dihydropyrido[3,4-d]pyrimidin-8-yl)thiazol-2-yl)benzamide], with less than 20%; and `O=c1[nH]c(COc2ccc(F)cc2)nc2c(-c3csc(NCCO)n3)nccc12` [Compound 125, 2-((4-fluorophenoxy)methyl)-8-(2-((2-hydroxyethyl)amino)thiazol-4-yl)pyrido[3,4-d]pyrimidin-4(3H)-one], with not below 50%; and `CN(C)CCNc1nc(-c2nccc3c(=O)[nH]c(COc4ccc(F)cc4)nc23)cs1` [Compound 126, 8-(2-((2-(dimethylamino)ethyl)amino)thiazol-4-yl)-2-((4-fluorophenoxy)methyl) pyrido[3,4-d]pyrimidin-4(3H)-one], with not below 50%.
`CN1CCC(Nc2nc(-c3nccc4c(=O)[nH]c(COc5ccc(F)cc5)nc34)cs2)CC1` [Compound 127, 2-((4-fluorophenoxy)methyl)-8-(2-((1-methylpiperidin-4-yl)amino)thiazol-4-yl)pyrido[3,4-d]pyrimidin-4(3H)-one]: the inhibition at 0.1 µM was not below 50%.
Then `O=c1[nH]c(COc2ccc(F)cc2)nc2c(-c3csc(NC4CCN(Cc5ccccc5)CC4)n3)nccc12` [Compound 128, 8-(2-((1-benzylpiperidin-4-yl)amino)thiazol-4-yl)-2-((4-fluorophenoxy)methyl) pyrido[3,4-d]pyrimidin-4(3H)-one], with less than 20%; and `O=c1[nH]c(COc2cc(F)cc(F)c2)nc2c(-c3csc(NCCO)n3)nccc12` [Compound 129, 2-((3,5-difluorophenoxy)methyl)-8-(2-((2-hydroxyethyl)amino)thiazol-4-yl)pyrido[3,4-d]pyrimidin-4(3H)-one], with less than 20%.
The same measure for `CN(C)CCNc1nc(-c2nccc3c(=O)[nH]c(COc4cc(F)cc(F)c4)nc23)cs1` [Compound 130, 2-((3,5-difluorophenoxy)methyl)-8-(2-((2-(dimethylamino)ethyl)amino)thiazol-4-yl)pyrido[3,4-d]pyrimidin-4(3H)-one]: not below 50%; for `CN1CCC(Nc2nc(-c3nccc4c(=O)[nH]c(COc5cc(F)cc(F)c5)nc34)cs2)CC1` [Compound 131, 2-((3,5-difluorophenoxy)methyl)-8-(2-((1-methylpiperidin-4-yl)amino)thiazol-4-yl)pyrido[3,4-d]pyrimidin-4(3H)-one]: not below 50%; for `O=c1[nH]c(COc2ccccc2Cl)nc2c(-c3csc(NCCO)n3)nccc12` [Compound 132, 2-((2-chlorophenoxy)methyl)-8-(2-((2-hydroxyethyl)amino)thiazol-4-yl)pyrido[3,4-d]pyrimidin-4(3H)-one]: 20 to 50%.
The same measure for `O=c1[nH]c(COc2cccc(Cl)c2)nc2c(-c3csc(NCCO)n3)nccc12` [Compound 133, 2-((3-chlorophenoxy)methyl)-8-(2-((2-hydroxyethyl)amino)thiazol-4-yl)pyrido[3,4-d]pyrimidin-4(3H)-one]: 20 to 50%; for `O=c1[nH]c(COc2cc(Cl)cc(Cl)c2)nc2c(-c3csc(NCCO)n3)nccc12` [Compound 134, 2-((3,5-dichlorophenoxy)methyl)-8-(2-((2-hydroxyethyl)amino)thiazol-4-yl)pyrido[3,4-d]pyrimidin-4(3H)-one]: 20 to 50%; for `O=c1[nH]c(COc2ccc(Cl)cc2Cl)nc2c(-c3csc(NCCO)n3)nccc12` [Compound 135, 2-((2,4-dichlorophenoxy)methyl)-8-(2-((2-hydroxyethyl)amino)thiazol-4-yl)pyrido[3,4-d]pyrimidin-4(3H)-one]: 20 to 50%.
For the compound `O=c1[nH]c(COc2ccc(Cl)c(Cl)c2)nc2c(-c3csc(NCCO)n3)nccc12` [Compound 136, 2-((3,4-dichlorophenoxy)methyl)-8-(2-((2-hydroxyethyl)amino)thiazol-4-yl)pyrido[3,4-d]pyrimidin-4(3H)-one], the inhibition at 0.1 µM is not below 50%.
The same measure for `Cc1nc2c(-c3csc(NCCO)n3)nccc2c(=O)[nH]1` [Compound 137, 8-(2-((2-hydroxyethyl)amino)thiazol-4-yl)-2-methylpyrido [3,4-d]pyrimidin-4(3H)-one]: less than 20%; for `CC(C)c1nc2c(-c3csc(NCCO)n3)nccc2c(=O)[nH]1` [Compound 138, 8-(2-((2-hydroxyethyl)amino)thiazol-4-yl)-2-isopropylpyrido[3,4-d]pyrimidin-4(3H)-one]: less than 20%; for `O=c1[nH]c(Cc2ccccc2)nc2c(-c3csc(NCCO)n3)nccc12` [Compound 139, 2-benzyl-8-(2-((2-hydroxyethyl)amino)thiazol-4-yl)pyrido[3,4-d]pyrimidin-4(3H)-one]: less than 20%.
For the compound `CN(C)CCNc1nc(-c2nccc3c(=O)[nH]c(Cc4ccccc4)nc23)cs1` [Compound 140, 2-benzyl-8-(2-((2-(dimethylamino)ethyl)amino)thiazol-4-yl)pyrido[3,4-d]pyrimidin-4(3H)-one], the inhibition at 0.1 µM fell in the range of 20 to 50%.
The same measure for `CC(c1ccccc1)c1nc2c(-c3csc(NCCO)n3)nccc2c(=O)[nH]1` (stereo not drawn) [Compound 141, 8-(2-((2-hydroxyethyl)amino)thiazol-4-yl)-2-(1-phenylethyl)pyrido[3,4-d]pyrimidin-4(3H)-one]: less than 20%; for `O=c1[nH]c(COCc2ccccc2)nc2c(-c3csc(NCCO)n3)nccc12` [Compound 142, 2-((benzyloxy)methyl)-8-(2-((2-hydroxyethyl)amino)thiazol-4-yl)pyrido[3,4-d]pyrimidin-4(3H)-one]: 20 to 50%.
